Values joined by “and” are separate entries in the source; they are usually repeats but may differ in a detail not shown here. Equal entries are not always repeated.
Target: PKCα (Homo sapiens, UniProt P17252)
Experiment: [3H]PDBu displacement, 96-well plate filtration binding assay
Details: for Displacement assay raw data (CCPM): single replicate wells; for Residual [^3H]PDBu binding to PKCα (% of control): 20 μM compound concentration, mean + SEM, n = 2–8

Compound	Displacement assay raw data (CCPM) (0,2 µM test substance)	Displacement assay raw data (CCPM) (1 µM test substance)	Displacement assay raw data (CCPM) (4 µM test substance)	Displacement assay raw data (CCPM) (10 µM test substance)	Residual [^3H]PDBu binding to PKCα (% of control)	Displacement assay raw data (CCPM) (20 µM test substance)	Displacement assay raw data (CCPM) (30 µM test substance)
CCCC(CCC)COC(=O)c1nc(CO)nc(OCC(CCC)CCC)c1C [Compound 2d, 2-propylpentyl 2-(hydroxymethyl)-5-methyl-6-[(2-propylpentyl)oxy]pyrimidine-4-carboxylate]	9740 CCPM and 9459 CCPM and 9651 CCPM and 5569 CCPM and 5686 CCPM and 5559 CCPM	7644 CCPM and 9362 CCPM and 9109 CCPM and 5694 CCPM and 5798 CCPM and 6238 CCPM	7518 CCPM and 9016 CCPM and 8738 CCPM and 4914 CCPM and 5158 CCPM and 5369 CCPM	7586 CCPM and 7877 CCPM and 7985 CCPM and 4832 CCPM and 5595 CCPM and 4913 CCPM	89.7 ± 7.1 % of control	7408 CCPM and 8501 CCPM and 8368 CCPM and 4542 CCPM and 5847 CCPM and 5492 CCPM	8520 CCPM and 7381 CCPM and 8758 CCPM and 5782 CCPM and 4556 CCPM and 4977 CCPM
CCCCC(CC)OC(=O)c1nc(CO)nc(OC(CC)CCCC)c1C (centres unmarked) [Compound 2e, Heptan-3-yl 6-(heptan-3-yloxy)-2-(hydroxymethyl)-5-methylpyrimidine-4-carboxylate]	13386 CCPM and 12773 CCPM and 11586 CCPM and 9937 CCPM and 11273 CCPM and 11368 CCPM	12486 CCPM and 13520 CCPM and 13561 CCPM and 10438 CCPM and 10771 CCPM and 10331 CCPM	13244 CCPM and 12192 CCPM and 13129 CCPM and 11362 CCPM and 12373 CCPM and 12221 CCPM	12416 CCPM and 12269 CCPM and 12041 CCPM and 10898 CCPM and 11193 CCPM and 10978 CCPM	91.4 ± 2.3 % of control	11475 CCPM and 10474 CCPM and 10581 CCPM and 9805 CCPM and 9920 CCPM and 10092 CCPM	11584 CCPM and 10772 CCPM and 11119 CCPM and 8897 CCPM and 9568 CCPM and 9434 CCPM
Cc1c(OCc2cccc(C(F)(F)F)c2)nc(CO)nc1C(=O)OCc1cccc(C(F)(F)F)c1 [Compound 2f, 3-(trifluoromethyl)benzyl 2-(hydroxymethyl)-5-methyl-6-[[3-(trifluoromethyl)benzyl]oxy]pyrimidine-4-carboxylate]	5892 CCPM and 5535 CCPM and 6214 CCPM and 6493 CCPM and 5681 CCPM and 5606 CCPM	5789 CCPM and 5065 CCPM and 5775 CCPM and 6129 CCPM and 5689 CCPM	5908 CCPM and 5351 CCPM and 5505 CCPM and 4754 CCPM and 5387 CCPM and 5468 CCPM	5951 CCPM and 5634 CCPM and 5541 CCPM and 5247 CCPM and 5397 CCPM and 4899 CCPM	90.5 ± 6.0 % of control	5509 CCPM and 4316 CCPM and 5047 CCPM and 4822 CCPM and 4931 CCPM and 4834 CCPM	5249 CCPM and 4747 CCPM and 5046 CCPM and 4792 CCPM and 4631 CCPM and 4673 CCPM
COC(=O)c1nc(CO)nc(OCc2cccc(C(F)(F)F)c2)c1C [Compound 2g, Methyl 2-(hydroxymethyl)-5-methyl-6-[[3-(trifluoromethyl)benzyl]oxy]pyrimidine-4-carboxylate]	5444 CCPM and 5572 CCPM and 6419 CCPM and 5626 CCPM and 5372 CCPM and 5082 CCPM	5331 CCPM and 5641 CCPM and 6328 CCPM and 5502 CCPM and 5786 CCPM and 5467 CCPM	5858 CCPM and 5969 CCPM and 5764 CCPM and 5341 CCPM and 5546 CCPM and 5465 CCPM	6071 CCPM and 6111 CCPM and 6173 CCPM and 5469 CCPM and 6077 CCPM and 5316 CCPM	106.7 ± 5.0 % of control	5096 CCPM and 6099 CCPM and 5970 CCPM and 5477 CCPM and 5384 CCPM and 5474 CCPM	5416 CCPM and 5047 CCPM and 5574 CCPM and 5225 CCPM and 5482 CCPM and 5411 CCPM
CCCCC(CC)OC(=O)c1nc(CO)nc(OCc2cccc(C(F)(F)F)c2)c1C (centres unmarked) [Compound 2h, Heptan-3-yl 2-(hydroxymethyl)-5-methyl-6-[[3-(trifluoromethyl)benzyl]oxy]pyrimidine-4-carboxylate]	5892 CCPM and 5535 CCPM and 6214 CCPM and 5732 CCPM and 5572 CCPM and 5002 CCPM	5789 CCPM and 5065 CCPM and 5775 CCPM and 5836 CCPM and 5313 CCPM and 4792 CCPM	5908 CCPM and 5351 CCPM and 5505 CCPM and 5457 CCPM and 5305 CCPM and 4736 CCPM	5951 CCPM and 5634 CCPM and 5541 CCPM and 4751 CCPM and 4877 CCPM and 4485 CCPM	86.8 ± 7.8 % of control	5509 CCPM and 4316 CCPM and 5047 CCPM and 4061 CCPM and 4136 CCPM and 4187 CCPM	5249 CCPM and 4747 CCPM and 5046 CCPM and 3715 CCPM and 4141 CCPM and 3683 CCPM
CCCCCCCOc1nc(CO)nc(C(=O)OC(CC)CCCC)c1C (centres unmarked) [Compound 2i, Heptan-3-yl 6-(heptyloxy)-2-(hydroxymethyl)-5-methylpyrimidine-4-carboxylate]	4873 CCPM and 4870 CCPM and 5222 CCPM and 7916 CCPM and 8966 CCPM and 8933 CCPM	5191 CCPM and 5217 CCPM and 5062 CCPM and 8605 CCPM and 8987 CCPM and 9227 CCPM	5070 CCPM and 5217 CCPM and 5699 CCPM and 8553 CCPM and 8476 CCPM and 8686 CCPM	4806 CCPM and 5282 CCPM and 4681 CCPM and 7955 CCPM and 8861 CCPM and 7525 CCPM	87.2 ± 1.7 % of control	4663 CCPM and 4781 CCPM and 4927 CCPM and 7593 CCPM and 7766 CCPM and 7574 CCPM	4959 CCPM and 5003 CCPM and 5038 CCPM and 7682 CCPM and 7603 CCPM and 7191 CCPM
CCCCCCCOc1nc(CO)nc(C(=O)OCc2cccc(C(F)(F)F)c2)c1C [Compound 2j, 3-(trifluoromethyl)benzyl 6-(heptyloxy)-2-(hydroxymethyl)-5-methylpyrimidine-4-carboxylate]	5070 CCPM and 6403 CCPM and 6171 CCPM and 8628 CCPM and 8277 CCPM and 7942 CCPM	5379 CCPM and 6351 CCPM and 6353 CCPM and 8453 CCPM and 7986 CCPM and 7710 CCPM	5347 CCPM and 4876 CCPM and 6039 CCPM and 8146 CCPM and 8038 CCPM and 8545 CCPM	4978 CCPM and 4910 CCPM and 4651 CCPM and 7817 CCPM and 7871 CCPM and 7636 CCPM	87.2 ± 6.0 % of control	5492 CCPM and 5042 CCPM and 4393 CCPM and 7145 CCPM and 7596 CCPM and 7314 CCPM	4511 CCPM and 5233 CCPM and 4215 CCPM and 6957 CCPM and 7148 CCPM and 7222 CCPM
CCCCC(CC)Oc1nc(CO)nc(C(=O)OC)c1C (centres unmarked) [Compound 2k, Methyl 6-(heptan-3-yloxy)-2-(hydroxymethyl)-5-methylpyrimidine-4-carboxylate]	13386 CCPM and 11844 CCPM and 11381 CCPM and 5560 CCPM and 5090 CCPM and 5580 CCPM	12313 CCPM and 12292 CCPM and 11097 CCPM and 5334 CCPM and 5340 CCPM and 5211 CCPM	12488 CCPM and 11770 CCPM and 11977 CCPM and 5381 CCPM and 5013 CCPM and 5436 CCPM	12602 CCPM and 12313 CCPM and 12064 CCPM and 5438 CCPM and 4595 CCPM and 5996 CCPM	110.7 ± 5.5 % of control	12386 CCPM and 11227 CCPM and 11279 CCPM and 6057 CCPM and 6588 CCPM and 6792 CCPM	11742 CCPM and 11565 CCPM and 11279 CCPM and 5575 CCPM and 6135 CCPM and 5991 CCPM

Reference: PMC5895059, “Scaffold hopping from (5-hydroxymethyl) isophthalates to multisubstituted pyrimidines diminishes binding affinity to the C1 domain of protein kinase C” (PLoS ONE, 2018)
